Experimental data as given in US7691844B2, “Nonpeptide substituted spirobenzoazepines as vasopressin antagonists” (Ortho-McNeil Pharmaceutical, Inc., priority 2000, dated 2010).

Experiments:
[1] = target: V1a (Homo sapiens, UniProt P37288); test: In-vitro receptor binding assay (3H-arginine-8-vasopressin), V1a; settings: for inhibition at 0.1 µM / inhibition at 0.125 µM: read-out: Receptor Binding V1a (% Inh. @ concentration in μM)
Description: (§1) (A) In-Vitro Binding Assay […] The reaction plates are allowed to sit at room temperature for one hour. The samples are filtered through Unifilter GF/C plates (presoaked in 0.3 polyethyleneimine). The plates are washed 5 times with cold physiological saline containing 0.05% Tween 20. After drying, the bottom of the filter plates are sealed and 0.025 ml of Microscint-20 is added to each filter. The top of the plate is sealed, and the plate is counted. Non-specific binding is determined by the addition of 1.25 μM […]-vasopressin in those wells. % Inh. is calculated as follows: […]

[2] = target: human V2 receptor (Homo sapiens, UniProt P30518); test: In-vitro receptor binding assay (3H-arginine-8-vasopressin), V2
Description: as §1

[3] = read-out: Receptor Binding V2 (% Inh. @ concentration in μM)
[4] = @ 10 μM, read-out: Receptor Binding V2 (% Inh. @ concentration in μM)
[5] = @ 1 μM, read-out: Receptor Binding V2 (% Inh. @ concentration in μM)

V1a, sequence (P37288 whole entry): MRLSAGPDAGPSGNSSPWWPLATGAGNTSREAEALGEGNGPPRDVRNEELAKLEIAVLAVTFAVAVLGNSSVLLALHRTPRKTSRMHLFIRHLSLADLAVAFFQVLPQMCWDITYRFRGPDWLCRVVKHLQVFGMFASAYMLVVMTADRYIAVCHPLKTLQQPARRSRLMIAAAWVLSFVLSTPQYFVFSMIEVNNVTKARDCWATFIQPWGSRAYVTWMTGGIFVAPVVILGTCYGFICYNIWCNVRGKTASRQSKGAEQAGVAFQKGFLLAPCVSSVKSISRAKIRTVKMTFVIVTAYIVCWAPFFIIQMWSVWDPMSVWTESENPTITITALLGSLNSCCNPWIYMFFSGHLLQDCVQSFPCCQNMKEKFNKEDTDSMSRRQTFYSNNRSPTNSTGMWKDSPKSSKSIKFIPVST
human V2 receptor, sequence (P30518 whole entry): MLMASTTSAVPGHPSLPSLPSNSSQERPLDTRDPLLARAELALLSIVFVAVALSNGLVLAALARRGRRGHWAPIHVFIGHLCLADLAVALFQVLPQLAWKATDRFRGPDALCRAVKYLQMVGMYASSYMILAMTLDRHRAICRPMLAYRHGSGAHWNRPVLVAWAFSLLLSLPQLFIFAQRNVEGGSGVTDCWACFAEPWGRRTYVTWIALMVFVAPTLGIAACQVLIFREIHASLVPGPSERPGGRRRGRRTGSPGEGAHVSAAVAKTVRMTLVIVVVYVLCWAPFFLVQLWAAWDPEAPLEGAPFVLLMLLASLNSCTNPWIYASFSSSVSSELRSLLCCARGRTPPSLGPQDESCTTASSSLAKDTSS

Row | Compound | IC50 [1] [µM] | inhibition at 1 µM [2, 5] [%] | other results
1 | CN(C)CCNC(=O)C1=CC2(CC1)CCN(C(=O)c1ccc(-n3ccc(C=O)c3)cc1)c1ccccc1C2 (centres unmarked) [Compound 201] | – | – | inhibition at 0.1 µM [1]: 44%; inhibition at 0.1 µM [2, 3]: 0%
2 | Nc1ccc(C(=O)N2CCC3(CCCCC3)Cc3ccccc32)cc1 [Compound 25] | 10 | – | inhibition at 10 µM [2, 4]: 7%
3 | CON(C)Cc1ccn(-c2ccc(C(=O)N3CCC4(C=C(C(=O)NCCN(C)C)CC4)Cc4ccccc43)cc2)c1 (centres unmarked) [Compound 210] | – | 22 | inhibition at 0.125 µM [1]: 6%
4 | Nc1ccc(C(=O)N2CCC3(C=CCCC3)Cc3ccccc32)cc1 (centres unmarked) [Compound 68] | 0.81 | 3 | –
5 | COc1cc(C(=O)N2CCC3(C=CCCC3)Cc3ccccc32)ccc1-n1ccc(C=O)c1 (centres unmarked) [Compound 167, 4-(3-Methoxy-4-(pyrrol-1-yl-3-carboxaldehyde)benzoyl)-4-aza-[6,5]-spiro-[5,6]-benzododec-2′-ene] | 0.06 | – | inhibition at 0.225 µM ([2]; @ 0.225 μM, read-out: Receptor Binding V2 (% Inh. @ concentration in μM)): 19%
6 | O=C(c1ccc(OCc2ccccc2)cc1)N1CCC2(C=CCCC2)Cc2ccccc21 (centres unmarked) [Compound 184] | 0.086 | 34 | –
7 | COCCN1CCN(CC2=CC3(CC2)CCN(C(=O)c2ccc(NC(=O)c4cc(F)ccc4C)cc2Cl)c2ccccc2C3)CC1 (centres unmarked) [Compound 140] | – | – | inhibition at 0.1 µM [1]: 41%; inhibition at 0.1 µM [2, 3]: 65%
8 | O=C(c1cccc(Cl)c1)N1CCC2(C=CCCC2)Cc2ccccc21 (centres unmarked) [Compound 46] | 3.5 | – | inhibition at 10 µM [2, 4]: 33%
9 | Cc1ccn(-c2ccc(C(=O)N3CCC4(C=CCCC4)Cc4ccccc43)cc2-n2ccc(C)n2)n1 (centres unmarked) [Compound 151] | 0.042 | 20 | –
10 | Cc1ccc(F)cc1C(=O)Nc1ccc(C(=O)N2CCC3(C=C(C(=O)NCCN4CCCC4)CC3)Cc3ccccc32)cc1 (centres unmarked) [Compound 161] | 0.01 | – | IC50 [2]: 0.072 µM
11 | CN(C)c1ccc(C(=O)N2CCC3(C=CCCC3)Cc3cc(Cl)c(Cl)cc32)cc1 (centres unmarked) [Compound 72] | 0.04 | – | Receptor Binding V2 (% Inh. @ concentration in μM) ([2]; @ 1 μM): 16% @ 1
12 | Cc1ccc(F)cc1C(=O)Nc1ccc(C(=O)N2CCC3(C=C(C=O)CC3)Cc3ccccc32)c(Cl)c1 (centres unmarked) [Compound 138] | – | – | inhibition at 0.1 µM [1]: 35%; inhibition at 0.1 µM [2, 3]: 57%
13 | CN(C)c1ccc(C(=O)N2CCC3(C=CCCC3)Cc3ccccc32)cc1 (centres unmarked) [Compound 45] | 0.11 | – | IC50 [2]: 10 µM
14 | CCCCN1CCC(Oc2ccc(C(=O)N3CCC4(C=CCCC4)Cc4ccccc43)cc2F)CC1 (centres unmarked) [Compound 171] | – | 65 | inhibition at 0.1 µM [1]: 24%
15 | COc1ccc(C(=O)N2Cc3ccccc3CC3(C=CCCC3)C2)cc1OC (centres unmarked) [Compound 153] | 0.55 | 0 | –
16 | O=C(Nc1ccc(C(=O)N2CCC3(C=CCCC3)Cc3ccccc32)cc1)c1ccc(-c2ccccc2)cc1 (centres unmarked) [Compound 84] | – | – | Receptor Binding V1a (% Inh. @ concentration in μM) ([1]; @ 1 μM): 35% @ 1; Receptor Binding V2 (% Inh. @ concentration in μM) ([2]; @ 1 μM): 2% @ 1
17 | Cc1ccc(F)cc1C(=O)Nc1ccc(C(=O)N2CCC3(C=C(C(=O)NCCO)CC3)Cc3ccccc32)cc1 (centres unmarked) [Compound 159] | 0.011 | – | IC50 [2]: 0.047 µM
18 | O=C(c1ccc(I)cc1)N1CCC2(C=CCCC2)Cc2ccccc21 (centres unmarked) [Compound 40] | 0.57 | – | Receptor Binding V2 (% Inh. @ concentration in μM) ([2]; @ 10 μM): 27% @ 10
19 | COc1cc(NC(=O)c2ccccc2F)ccc1C(=O)N1CCC2(C=CCCC2)Cc2ccccc21 (centres unmarked) [Compound 115] | 0.019 | – | inhibition at 0.1 µM [2, 3]: 37%
20 | Cc1ccc(F)cc1C(=O)Nc1ccc(C(=O)N2CCC3(C=C(C(=O)NCCN4CCCCC4)CC3)Cc3ccccc32)cc1 (centres unmarked) [Compound 160] | 0.011 | – | IC50 [2]: 0.082 µM
21 | O=C(Nc1ccccc1)N1CCC2(C=CCCC2)Cc2ccccc21 (centres unmarked) [Compound 61] | – | – | Receptor Binding V1a (% Inh. @ concentration in μM) ([1]; @ 1 μM): 11% @ 1; Receptor Binding V2 (% Inh. @ concentration in μM) ([2]; @ 1 μM): 3% @ 1
22 | COC(=O)C1=CC2(CC1)CCN(C(=O)c1ccc(-n3ccc(C)n3)c(N(C)C)c1)c1ccccc1C2 (centres unmarked) [Compound 213] | – | 55 | inhibition at 0.125 µM [1]: 63%
23 | CC(=O)Nc1ccc(C(=O)N2CCC3(C=CCCC3)Cc3ccccc32)cc1 (centres unmarked) [Compound 57] | 0.34 | 4 | –

Row | Compound | IC50 [1] [µM] | inhibition at 1 µM [2, 5] [%] | other results
24 | O=C(Nc1ccc(C(=O)N2CCC3(C=CCCC3)Cc3ccccc32)cc1)c1ccccc1F (single isomer, unassigned) [Compound 109] | 0.014 | – | IC50 [2]: 0.3 µM
25 | O=C(Nc1ccc(C(=O)N2CCC3(C=CCCC3)Cc3ccccc32)cc1)c1ccncc1 (centres unmarked) [Compound 104] | 0.051 | 36 | –
26 | Cc1ccc(F)cc1C(=O)Nc1ccc(C(=O)N2CCC3(C=CCCC3)Cc3ccccc32)c(Cl)c1 (centres unmarked) [Compound 111] | 0.8 | – | IC50 [2]: 0.045 µM
27 | O=C(Nc1ccc(C(=O)N2CCC3(C=C(C(=O)N4CCN(c5ccncc5)CC4)CC3)Cc3ccccc32)cc1)c1ccccc1-c1ccccc1 (centres unmarked) [Compound 145] | – | – | inhibition at 0.1 µM [1]: 66%; IC50 [2]: 0.066 µM
28 | CCCCOc1ccc(C(=O)N2CCC3(C=CCCC3)Cc3cc(Cl)c(Cl)cc32)cc1 (centres unmarked) [Compound 73] | 0.09 | – | Receptor Binding V2 (% Inh. @ concentration in μM) ([2]; @ 1 μM): 10% @ 1
29 | O=C(Nc1ccccc1)c1ccc(C(=O)N2CCC3(C=CCCC3)Cc3ccccc32)cc1 (centres unmarked) [Compound 82, 4-(4-Anilinocarbonylbenzoyl)-4-aza-[6,5]-spiro-[5,6]-benzododec-2′-ene] | 0.02 | 41 | –
30 | O=C(Nc1ccc(C(=O)N2CCC3(CCCCC3O)Cc3ccccc32)cc1)c1ccccc1-c1ccccc1 (centres unmarked) [Compound 32] | 0.061 | – | IC50 [2]: 0.028 µM
31 | Cc1ccc(F)cc1C(=O)Nc1ccc(C(=O)N2CCC3(C=C(CO)CC3)Cc3ccccc32)c(Cl)c1 (centres unmarked) [Compound 137] | – | – | inhibition at 0.1 µM [1]: 53%; inhibition at 0.1 µM [2, 3]: 66%
32 | O=C(Nc1ccc(F)cc1)N1CCC2(C=CCCC2)Cc2ccccc21 (centres unmarked) [Compound 62] | – | – | Receptor Binding V1a (% Inh. @ concentration in μM) ([1]; @ 1 μM): 5% @ 1; Receptor Binding V2 (% Inh. @ concentration in μM) ([2]; @ 1 μM): 4% @ 1
33 | COc1cc(-n2ccc(CO)c2)ccc1C(=O)N1CCC2(C=C(C(=O)NCCN(C)C)CC2)Cc2ccccc21 (centres unmarked) [Compound 196] | 0.034 | 34 | –
34 | O=C(c1ccccc1F)N1CCC2(C=CCCC2)Cc2ccccc21 (centres unmarked) [Compound 107] | 0.06 | 21 | –
35 | CC(=O)N1CCC(Oc2ccc(C(=O)N3CCC4(C=CCCC4)Cc4ccccc43)cc2F)CC1 (centres unmarked) [Compound 168, 4-(3-Fluoro-4-(N-acetylpiperidin-4-yloxy)benzoyl)-4-aza-[6,5]-spiro-[5,6]-benzododec-2′-ene] | – | 0 | inhibition at 0.1 µM [1]: 50%
36 | COC(=O)CN1CCC(Oc2ccc(C(=O)N3CCC4(C=CCCC4)Cc4ccccc43)cc2F)CC1 (centres unmarked) [Compound 169] | – | 0 | inhibition at 0.1 µM [1]: 4%
37 | CN(C)CCNC(=O)C1=CC2(CC1)CCN(C(=O)c1ccc(N)cc1)c1ccccc1C2 (centres unmarked) [Compound 191] | 1.2 | – | Receptor Binding V2 (% Inh. @ concentration in μM) ([2]; @ 1 μM): 15% @ 1
38 | O=C(O)c1ccn(-c2ccc(C(=O)N3CCC4(C=CCCC4)Cc4ccccc43)cc2)c1 (centres unmarked) [Compound 199] | – | – | inhibition at 0.1 µM [1]: 0%; inhibition at 0.1 µM [2, 3]: 2%
39 | O=C(NCc1ccc(C(=O)N2CCC3(C=CCCC3)Cc3ccccc32)cc1)c1ccccc1 (centres unmarked) [Compound 55] | – | – | Receptor Binding V1a (% Inh. @ concentration in μM) ([1]; @ 10 μM): 0% @ 10; Receptor Binding V2 (% Inh. @ concentration in μM) ([2]; @ 10 μM): 29% @ 10
40 | O=C(c1ccncc1)N1CCC2(C=CCCC2)Cc2ccccc21 (centres unmarked) [Compound 35] | 1.4 | – | IC50 [2]: > 25 µM
41 | O=C(c1ccc(OC2CCCCC2)cc1)N1CCC2(C=CCCC2)Cc2ccccc21 (centres unmarked) [Compound 185] | 0.23 | 42 | –
42 | COc1cc(NC(=O)c2cc(F)ccc2C)ccc1C(=O)N1CCC2(C=CCCC2)Cc2ccccc21 (centres unmarked) [Compound 116] | 0.019 | – | IC50 [2]: 0.091 µM
43 | O=C(c1ccc(OC(F)(F)F)cc1)N1CCC2(C=CCCC2)Cc2ccccc21 (centres unmarked) [Compound 77] | 0.9 | 16 | –
44 | CNCC1=CC2(CC1)CCN(C(=O)c1ccc(NC(=O)c3cc(F)ccc3C)cc1Cl)c1ccccc1C2 (centres unmarked) [Compound 139] | – | – | inhibition at 0.1 µM [1]: 0%; inhibition at 0.1 µM [2, 3]: 17%
45 | CN(C)CCNC(=O)C1=CC2(CC1)CCN(C(=O)c1ccc(N)cc1)c1ccccc1C2 (centres unmarked) [Compound 193] | 1.1 | – | Receptor Binding V2 (% Inh. @ concentration in μM) ([2]; @ 1 μM): 0% @ 1
46 | Cc1ccc(F)cc1C(=O)Nc1ccc(C(=O)N2CCC3(C=C(C(=O)NCCCN4CCCC4)CC3)Cc3ccccc32)cc1 (centres unmarked) [Compound 157] | 0.016 | – | IC50 [2]: 0.038 µM
